Measurements reported in patent US20240245694A1, “Tricyclic Compounds and their Uses” (Novartis AG, priority 2022, published 2024).

Key:
DLD1-WRN-KO cells = experiment: Proliferation assay DLD1-WRN-KO (CellTiterGlo, 96 hours), off-target effects; format: cell-based; details: Homo sapiens
In short: (§1)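 Cells in RPMI-1640/10% FCS were seeded overnight (SW48 2'000, DLD1-WRN-KO 1'500 cells/well), then exposed to eight 3-fold compound dilutions at 0.1% DMSO. ATP luminescence relative to a day-0 plate gives % growth (0% stasis, −100% complete kill). GI50 is the geometric mean of ≥2 independent replicates.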

SW48 cells = experiment: Proliferation assay SW48 (CellTiterGlo, 96 hours); format: cell-based; details: Homo sapiens
In short: as §1

[1] = target: WRN helicase (core helicase motif aa N517-P1238) (Homo sapiens (Human), UniProt Q14191); experiment: WRN ATPase assay (ADP-Glo), DNA dependent ATP hydrolysis; format: biochemical; details: 3 hours pre-incubation, 300 micromolar ATP, FLAP26 ssDNA; geometric means of at least 2 determinations
WRN helicase (core helicase motif aa N517-P1238), sequence (Q14191 517-1238): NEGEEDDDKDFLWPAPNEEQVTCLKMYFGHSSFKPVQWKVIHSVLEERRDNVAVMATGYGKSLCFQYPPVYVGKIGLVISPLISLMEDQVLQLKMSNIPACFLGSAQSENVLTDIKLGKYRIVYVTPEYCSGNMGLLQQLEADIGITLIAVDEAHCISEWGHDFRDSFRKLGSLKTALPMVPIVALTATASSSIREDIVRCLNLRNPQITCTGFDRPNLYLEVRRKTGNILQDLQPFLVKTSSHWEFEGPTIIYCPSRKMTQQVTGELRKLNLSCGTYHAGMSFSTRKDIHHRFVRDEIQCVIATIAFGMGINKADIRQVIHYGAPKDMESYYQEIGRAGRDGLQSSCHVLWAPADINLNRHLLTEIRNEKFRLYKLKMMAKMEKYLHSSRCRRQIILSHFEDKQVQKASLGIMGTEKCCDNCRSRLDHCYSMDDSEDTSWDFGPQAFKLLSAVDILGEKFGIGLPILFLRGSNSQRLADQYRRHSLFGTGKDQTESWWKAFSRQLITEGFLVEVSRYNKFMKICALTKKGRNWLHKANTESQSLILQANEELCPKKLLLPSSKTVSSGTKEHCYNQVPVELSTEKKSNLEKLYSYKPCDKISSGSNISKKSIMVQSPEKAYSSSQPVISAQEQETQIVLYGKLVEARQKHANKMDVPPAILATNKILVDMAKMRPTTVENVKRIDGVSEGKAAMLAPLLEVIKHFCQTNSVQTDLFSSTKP
In short: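 Uses the WRN core helicase (aa N517-P1238) with single-strand 45-mer FLAP26 DNA in Tris pH 7.5, MgCl2, NaCl, BSA and pluronic buffer. Compound was pre-incubated 3 h with enzyme and ATP; reaction then run with 10 nM WRN, 0.2 nM FLAP26 and 300 µM ATP for 30 min at room temperature. ADP quantified by ADP-Glo luminescence; IC50 from duplicate 4-parameter fits, geometric mean of ≥2 runs.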

| GI50 (DLD1-WRN-KO cells) | GI50 (SW48 cells) | IC50 [1] | SMILES |
| --- | --- | --- | --- |
| > 10 µM | 0.3 µM | 0.03 µM | C[C@@H]1C[C@H](C(=O)Nc2ccc(C(F)(F)F)cc2Cl)n2c1c(N1CCN(C(=O)c3ccnc(F)c3O)CC1)c(=O)n1nc(C3=CCOCC3)nc21 [Example 12, (7R,9R)—N-(2-chloro-4-(trifluoromethyl)phenyl)-2-(3,6-dihydro-2H-pyran-4-yl)-6-(4-(2-fluoro-3-hydroxyisonicotinoyl)piperazin-1-yl)-7-methyl-5-oxo-5,7,8,9-tetrahydropyrrolo[1,2-c][1,2,4]triazolo[1,5-a]pyrimidine-9-carboxamide] |
| > 10 µM | 0.04 µM | 0.05 µM | C[C@@H]1C[C@H](C(=O)Nc2ccc(C(F)(F)F)cc2Cl)n2c1c(N1CCN(C(=O)c3ncncc3O)CC1)c(=O)n1nc(C3=CCOCC3)nc21 [Example 13, (7R,9R)—N-(2-chloro-4-(trifluoromethyl)phenyl)-2-(3,6-dihydro-2H-pyran-4-yl)-6-(4-(5-hydroxypyrimidine-4-carbonyl)piperazin-1-yl)-7-methyl-5-oxo-5,7,8,9-tetrahydropyrrolo[1,2-c][1,2,4]triazolo[1,5-a]pyrimidine-9-carboxamide] |
| > 10 µM | 0.02 µM | 0.04 µM | Cc1ncnc(C(=O)N2CCN(c3c4n(c5nc(C6=CCOCC6)nn5c3=O)[C@@H](C(=O)Nc3ccc(C(F)(F)F)cc3Cl)C[C@H]4C)CC2)c1O [Example 14A, (7R,9R)—N-(2-chloro-4-(trifluoromethyl)phenyl)-2-(3,6-dihydro-2H-pyran-4-yl)-6-(4-(5-hydroxy-6-methylpyrimidine-4-carbonyl)piperazin-1-yl)-7-methyl-5-oxo-5,7,8,9-tetrahydropyrrolo[1,2-c][1,2,4]triazolo[1,5-a]pyrimidine-9-carboxamide] |
| > 10 µM | 0.7 µM | 2 µM | Cc1ncnc(C(=O)N2CCN(c3c4n(c5nc(C6=CCOCC6)nn5c3=O)[C@H](C(=O)Nc3ccc(C(F)(F)F)cc3Cl)C[C@@H]4C)CC2)c1O [Example 14B, (7S,9S)—N-(2-chloro-4-(trifluoromethyl)phenyl)-2-(3,6-dihydro-2H-pyran-4-yl)-6-(4-(5-hydroxy-6-methylpyrimidine-4-carbonyl)piperazin-1-yl)-7-methyl-5-oxo-5,7,8,9-tetrahydropyrrolo[1,2-c][1,2,4]triazolo[1,5-a]pyrimidine-9-carboxamide] |
| > 10 µM | 0.3 µM | 0.1 µM | Cc1ncnc(C(=O)N2CCN(c3c4n(c5nc(C6=CCOCC6)nn5c3=O)[C@@H](C(=O)Nc3ccc(C(F)(F)F)cc3Cl)C[C@@H]4C)CC2)c1O [Example 14C, (7S,9R)—N-(2-chloro-4-(trifluoromethyl)phenyl)-2-(3,6-dihydro-2H-pyran-4-yl)-6-(4-(5-hydroxy-6-methylpyrimidine-4-carbonyl)piperazin-1-yl)-7-methyl-5-oxo-5,7,8,9-tetrahydropyrrolo[1,2-c][1,2,4]triazolo[1,5-a]pyrimidine-9-carboxamide] |
| > 10 µM | 0.7 µM | 1 µM | Cc1ncnc(C(=O)N2CCN(c3c4n(c5nc(C6=CCOCC6)nn5c3=O)[C@H](C(=O)Nc3ccc(C(F)(F)F)cc3Cl)C[C@H]4C)CC2)c1O [Example 14D, (7R,9S)—N-(2-chloro-4-(trifluoromethyl)phenyl)-2-(3,6-dihydro-2H-pyran-4-yl)-6-(4-(5-hydroxy-6-methylpyrimidine-4-carbonyl)piperazin-1-yl)-7-methyl-5-oxo-5,7,8,9-tetrahydropyrrolo[1,2-c][1,2,4]triazolo[1,5-a]pyrimidine-9-carboxamide] |
| > 10 µM | 0.03 µM | 0.05 µM | Cc1cc(C(F)(F)F)ccc1NC(=O)[C@H]1C[C@@H](C)c2c(N3CCN(C(=O)c4ncccc4O)CC3)c(=O)n3nc(C4=CCOCC4)nc3n21 [Example 15A, (7R,9R)-2-(3,6-dihydro-2H-pyran-4-yl)-6-(4-(3-hydroxypicolinoyl)piperazin-1-yl)-7-methyl-N-(2-methyl-4-(trifluoromethyl)phenyl)-5-oxo-5,7,8,9-tetrahydropyrrolo[1,2-c][1,2,4]triazolo[1,5-a]pyrimidine-9-carboxamide] |
